Earlier results, collected in patent publication US6703034B2, “Neem oil microemulsion without cosurfactants or alcohols and a process to form the same” (University of Florida, priority 2000, dated 2004).

Assays:
certain insects = conditions: quantities as low as
Insects = conditions: treated during larval and pupal stages

C/C=C(\C)C(=O)O[C@H]1C[C@@H](OC(C)=O)[C@@]2(C(=O)OC)CO[C@H]3[C@@H](O)[C@@](C)([C@]45O[C@@]4(C)[C@H]4C[C@@H]5O[C@@H]5OC=C[C@@]54O)[C@H]4[C@]1(CO[C@]4(O)C(=O)OC)[C@@H]32 [azadirachtin]
quantity at which potent (repels certain insects) (certain insects): 1 ppm
time to death of treated insects (Insects): 3 to 14 days
